Data reported in ChEMBL document CHEMBL1201862, “PubChem BioAssay data set” (2004).
Blank lines part the entries; values can stand above or below the compound they belong to. Activity calls are given as the source filed them.

Experiments:
[1] = target: Phosphoethanolamine/phosphocholine phosphatase (Homo sapiens, UniProt Q8TCT1); experiment: SAR assay for compounds that inhibit PHOSPHO1. [Related pubchem assays (depositor defined):AID1545, AID1565, AID1574]
[2] = target: Phosphomannomutase 2 (Homo sapiens, UniProt O15305); experiment: Counter screen SAR assay for PMM2 inhibitors via a fluorescence intensity assay. [Related pubchem assays (depositor defined):AID1545, AID1574]
[3] = target: T1, Mannose-6-phosphate isomerase (Homo sapiens, UniProt P34949); experiment: PMI enzyme inhibitors, confirmation, biochemical, fluorescence intensity (AID 1535)
T1 sequence (P34949 whole entry): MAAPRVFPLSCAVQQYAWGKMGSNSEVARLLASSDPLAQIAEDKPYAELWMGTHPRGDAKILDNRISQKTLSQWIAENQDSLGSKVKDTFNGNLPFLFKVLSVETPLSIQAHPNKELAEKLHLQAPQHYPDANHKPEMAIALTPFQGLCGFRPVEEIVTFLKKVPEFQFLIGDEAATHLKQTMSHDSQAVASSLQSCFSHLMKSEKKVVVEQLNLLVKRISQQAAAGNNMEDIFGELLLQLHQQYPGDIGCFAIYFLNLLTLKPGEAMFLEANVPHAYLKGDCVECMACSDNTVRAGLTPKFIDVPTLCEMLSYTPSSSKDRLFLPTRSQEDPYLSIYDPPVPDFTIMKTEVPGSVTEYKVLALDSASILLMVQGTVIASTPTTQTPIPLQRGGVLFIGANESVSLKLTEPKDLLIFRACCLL

[4] = target: T2, E3 ubiquitin-protein ligase XIAP (Homo sapiens, UniProt P98170); experiment: XIAP antagonists, biochemical, IAP family, fluorescence polarization (AID 1018); format: functional
[5] = target: T2, E3 ubiquitin-protein ligase XIAP; experiment: Counter Screen using XIAP-Bir3 for Chemical Antagonists of Bir1/2 domains of IAP-family anti-apoptotic proteins. [Related pubchem assays (depositor defined):AID1018, AID1449, AID1514, AID1638, AID1749, AID1750, AID488957, AID488963]
[6] = target: G-protein coupled receptor 55 (Homo sapiens, UniProt Q9Y2T6); experiment: GPR55 agonists via beta-arrestin recruitment, primary screen, imaging, U2OS cells, beta-arrestin-GFP redistribution (AID 1961); format: functional
[7] = Luminescence Cell-Based Dose Retest to Confirm Inhibitors of Cancer Stem Cells. [Related pubchem assays (depositor defined):AID2717, AID2721]; format: functional; conditions: Homo sapiens
[8] = cytotoxicity in MIN6 insulinoma cells, dose response, cytotoxicity control, cell-based, mouse insulinoma (AID 2122); format: functional;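 further: confirmatory high-throughput counterscreen run to flag cytotoxic compounds; mouse MIN-6 beta cells carrying an insulin promoter eGFP reporter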
[9] = insulin promoter down-regulators in MIN6 cells, imaging, high-content screening, mouse beta cells (AID 1628); format: functional
[10] = target: T3, Hexokinase HKDC1 (Homo sapiens, UniProt Q2TB90); experiment: HKDC1 hexokinase activators, dose response, biochemical, W721R variant (AID 504730); format: functional
T3 sequence (Q2TB90 whole entry): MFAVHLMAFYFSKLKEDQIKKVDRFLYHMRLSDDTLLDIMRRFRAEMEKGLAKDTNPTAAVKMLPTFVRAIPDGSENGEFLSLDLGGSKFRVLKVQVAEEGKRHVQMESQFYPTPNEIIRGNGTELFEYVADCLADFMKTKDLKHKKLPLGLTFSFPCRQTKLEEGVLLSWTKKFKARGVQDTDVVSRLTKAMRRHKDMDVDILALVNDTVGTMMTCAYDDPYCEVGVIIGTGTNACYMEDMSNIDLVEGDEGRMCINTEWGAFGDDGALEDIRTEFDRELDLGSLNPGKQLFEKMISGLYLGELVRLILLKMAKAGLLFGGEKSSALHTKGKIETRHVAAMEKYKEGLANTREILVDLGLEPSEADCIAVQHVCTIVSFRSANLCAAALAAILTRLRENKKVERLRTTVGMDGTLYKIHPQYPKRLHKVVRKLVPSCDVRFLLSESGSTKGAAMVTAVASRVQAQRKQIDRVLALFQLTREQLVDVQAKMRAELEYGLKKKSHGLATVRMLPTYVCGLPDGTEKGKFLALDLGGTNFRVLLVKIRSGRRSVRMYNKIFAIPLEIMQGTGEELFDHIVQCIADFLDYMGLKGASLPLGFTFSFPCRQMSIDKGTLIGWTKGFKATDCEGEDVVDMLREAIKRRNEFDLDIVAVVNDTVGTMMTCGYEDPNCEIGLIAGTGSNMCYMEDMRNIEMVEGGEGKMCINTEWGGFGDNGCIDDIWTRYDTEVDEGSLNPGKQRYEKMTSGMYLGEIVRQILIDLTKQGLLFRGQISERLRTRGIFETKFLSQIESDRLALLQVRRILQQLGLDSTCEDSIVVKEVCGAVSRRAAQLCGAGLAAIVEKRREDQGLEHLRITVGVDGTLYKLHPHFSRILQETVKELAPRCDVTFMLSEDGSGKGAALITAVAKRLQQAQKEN

[11] = target: Glucose-6-phosphate 1-dehydrogenase (Homo sapiens, UniProt P11413); experiment: human G6PD enzyme inhibitors, dose response, selectivity assay for P. falciparum G6PD inhibitor project, biochemical, fluorescence (AID 504792); format: functional
[12] = target: DNA dC->dU-editing enzyme APOBEC-3G (Homo sapiens, UniProt Q9HC16); experiment: Dose Response confirmation of small molecule APOBEC3G DNA Deaminase Inhibitors via a fluorescence-based single-stranded DNA deaminase assay. [Related pubchem assays (depositor defined):AID493012, AID493028]; format: functional
[13] = target: T4, Hexokinase-1 (Homo sapiens, UniProt P19367); experiment: hexokinase 1 activators, dose response, selectivity assay for HKDC1 activator project, biochemical (AID 504762); format: functional
T4 sequence (P19367 whole entry): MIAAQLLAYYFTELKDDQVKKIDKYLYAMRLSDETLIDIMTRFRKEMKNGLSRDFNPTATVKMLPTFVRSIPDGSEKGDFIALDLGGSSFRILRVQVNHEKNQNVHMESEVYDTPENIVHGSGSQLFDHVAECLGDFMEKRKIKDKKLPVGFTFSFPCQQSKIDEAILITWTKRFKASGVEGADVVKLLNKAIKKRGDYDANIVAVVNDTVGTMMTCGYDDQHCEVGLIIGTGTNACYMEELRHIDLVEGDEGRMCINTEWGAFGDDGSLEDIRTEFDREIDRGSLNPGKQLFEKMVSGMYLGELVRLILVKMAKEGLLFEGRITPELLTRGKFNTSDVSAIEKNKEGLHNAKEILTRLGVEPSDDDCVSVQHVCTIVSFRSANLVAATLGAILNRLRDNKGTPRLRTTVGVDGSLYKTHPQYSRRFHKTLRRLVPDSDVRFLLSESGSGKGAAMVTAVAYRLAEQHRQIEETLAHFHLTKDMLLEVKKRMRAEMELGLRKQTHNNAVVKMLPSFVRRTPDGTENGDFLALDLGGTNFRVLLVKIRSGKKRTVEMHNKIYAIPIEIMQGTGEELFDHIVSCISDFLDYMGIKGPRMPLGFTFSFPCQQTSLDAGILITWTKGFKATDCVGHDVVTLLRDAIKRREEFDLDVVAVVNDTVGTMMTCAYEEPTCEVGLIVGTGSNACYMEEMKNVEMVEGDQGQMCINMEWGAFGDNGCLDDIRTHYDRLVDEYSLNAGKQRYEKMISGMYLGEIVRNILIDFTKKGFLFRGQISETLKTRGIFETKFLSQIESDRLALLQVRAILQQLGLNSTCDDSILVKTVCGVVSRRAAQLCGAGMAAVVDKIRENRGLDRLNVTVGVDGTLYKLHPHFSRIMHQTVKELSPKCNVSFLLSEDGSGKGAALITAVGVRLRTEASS

[14] = target: DNA dC->dU-editing enzyme APOBEC-3A (Homo sapiens, UniProt P31941); experiment: APOBEC3A DNA deaminase inhibitors, dose response, biochemical (AID 504722); format: functional
[15] = target: T5, CAAX prenyl protease 1 (Saccharomyces cerevisiae S288c, UniProt P47154); experiment: Ste24 protease inhibitors, dose response, biochemical, S. cerevisiae, plate reader, cherry-pick (AID 488815)
T5 sequence (P47154 whole entry): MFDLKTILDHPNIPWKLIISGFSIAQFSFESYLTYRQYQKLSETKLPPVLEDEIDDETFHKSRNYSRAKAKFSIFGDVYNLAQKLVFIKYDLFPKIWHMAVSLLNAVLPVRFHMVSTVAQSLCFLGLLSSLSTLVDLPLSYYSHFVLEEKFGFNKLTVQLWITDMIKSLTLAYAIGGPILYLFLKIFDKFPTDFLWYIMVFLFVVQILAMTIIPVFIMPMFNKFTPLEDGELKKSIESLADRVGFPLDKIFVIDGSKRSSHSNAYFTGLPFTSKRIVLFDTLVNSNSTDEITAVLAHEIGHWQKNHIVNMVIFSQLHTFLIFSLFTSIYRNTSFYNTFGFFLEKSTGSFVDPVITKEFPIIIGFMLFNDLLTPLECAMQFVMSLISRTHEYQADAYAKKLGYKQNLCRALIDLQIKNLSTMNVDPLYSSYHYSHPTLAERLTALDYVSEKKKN

[16] = target: C-C chemokine receptor type 6 (Homo sapiens, UniProt P51684); experiment: CCR6 receptor antagonists, dose response, cell-based, luminescent beta-arrestin readout (AID 504728); format: functional
[17] = target: T6, CAAX prenyl protease 2 (Saccharomyces cerevisiae S288c, UniProt Q03530); format: biochemical
T6 sequence (Q03530 whole entry): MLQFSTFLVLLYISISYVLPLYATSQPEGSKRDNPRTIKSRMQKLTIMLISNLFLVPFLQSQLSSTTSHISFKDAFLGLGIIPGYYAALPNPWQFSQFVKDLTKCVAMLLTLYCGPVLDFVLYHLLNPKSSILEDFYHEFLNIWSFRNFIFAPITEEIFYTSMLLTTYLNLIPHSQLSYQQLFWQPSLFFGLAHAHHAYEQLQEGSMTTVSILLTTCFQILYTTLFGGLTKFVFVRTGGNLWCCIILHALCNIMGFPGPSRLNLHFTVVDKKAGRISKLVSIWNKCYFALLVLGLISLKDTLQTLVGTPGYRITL

[18] = target: Beta-galactosidase (Escherichia coli, UniProt Q8VNN2); experiment: beta-galactosidase enzyme inhibitors and activators, dose response, artefact control for CCR6 antagonist project, biochemical, E. coli enzyme, set 3 (AID 504712); format: functional
[19] = target: Mu-type opioid receptor (Homo sapiens, UniProt P35372); experiment: (§1) Counterscreen for agonists of heterodimerization of the mu 1 (OPRM1) and delta 1 (OPRD1) opioid receptors: Luminescence-based cell-based high throughput dose response assay to identify agonists of OPRM1 homodimerization.; format: functional
[20] = target: 5-hydroxytryptamine receptor 5A (Homo sapiens, UniProt P47898); experiment: Counterscreen for agonists of OPRM1-OPRD1 heterodimerization: luminescence-based cell-based high throughput dose response assay to identify agonists of 5-hydroxytryptamine (serotonin) 5A receptor (HTR5A). [Related pubchem assays (depositor defined):AID504326, AID504355, AID504692, AID504904, AID504905]; format: functional
[21] = target: Delta-type opioid receptor (Homo sapiens, UniProt P41143); experiment: as §1, with “of OPRD1” for “of OPRM1”, “homodimerization. [Related pubchem assays (depositor defined):AID504326, AID504355, AID504692, AID504904, AID504905]” for “homodimerization.”; format: functional
[22] = HEp-2 cell cytotoxicity, dose response, cytotoxicity control for RSV inhibitor project, HTS (AID 2410); format: functional; conditions: human respiratory syncytial virus

T2 sequence (P98170 whole entry): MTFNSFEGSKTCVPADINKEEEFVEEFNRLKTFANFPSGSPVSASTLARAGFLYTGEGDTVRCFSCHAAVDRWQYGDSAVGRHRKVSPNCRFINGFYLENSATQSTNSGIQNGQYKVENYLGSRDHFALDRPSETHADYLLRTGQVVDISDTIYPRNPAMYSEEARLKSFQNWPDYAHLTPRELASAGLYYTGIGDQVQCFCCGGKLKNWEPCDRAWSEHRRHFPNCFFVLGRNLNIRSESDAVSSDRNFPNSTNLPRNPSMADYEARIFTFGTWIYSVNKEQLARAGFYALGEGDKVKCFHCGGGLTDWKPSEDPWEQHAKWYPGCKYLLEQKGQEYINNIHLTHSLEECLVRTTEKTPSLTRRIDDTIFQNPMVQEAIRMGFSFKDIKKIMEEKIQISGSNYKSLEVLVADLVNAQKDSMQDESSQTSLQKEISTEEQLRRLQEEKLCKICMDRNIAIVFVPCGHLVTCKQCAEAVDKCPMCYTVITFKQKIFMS
Chain of C-C chemokine receptor type 6 (P51684 whole entry): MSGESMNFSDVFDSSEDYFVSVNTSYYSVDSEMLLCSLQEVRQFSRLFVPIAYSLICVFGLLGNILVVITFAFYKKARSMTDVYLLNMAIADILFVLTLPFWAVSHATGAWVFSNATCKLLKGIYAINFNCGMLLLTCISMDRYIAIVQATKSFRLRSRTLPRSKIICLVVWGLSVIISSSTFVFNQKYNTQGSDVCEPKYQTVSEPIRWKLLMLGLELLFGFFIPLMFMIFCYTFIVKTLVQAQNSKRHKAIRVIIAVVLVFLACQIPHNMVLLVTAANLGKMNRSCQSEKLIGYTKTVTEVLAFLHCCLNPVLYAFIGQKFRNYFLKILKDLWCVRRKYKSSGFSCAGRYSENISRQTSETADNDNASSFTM
Chain of Delta-type opioid receptor (P41143 whole entry): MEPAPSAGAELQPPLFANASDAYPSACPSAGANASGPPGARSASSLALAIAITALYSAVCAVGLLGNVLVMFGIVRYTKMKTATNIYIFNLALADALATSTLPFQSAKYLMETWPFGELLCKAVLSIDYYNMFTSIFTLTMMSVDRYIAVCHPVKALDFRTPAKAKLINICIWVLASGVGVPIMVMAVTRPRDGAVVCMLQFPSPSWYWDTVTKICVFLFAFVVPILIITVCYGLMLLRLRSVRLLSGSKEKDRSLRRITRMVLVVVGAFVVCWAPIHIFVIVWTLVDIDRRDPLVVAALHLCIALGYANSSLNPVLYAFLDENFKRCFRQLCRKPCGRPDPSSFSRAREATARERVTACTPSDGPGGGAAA
Chain of Phosphomannomutase 2 (O15305 whole entry): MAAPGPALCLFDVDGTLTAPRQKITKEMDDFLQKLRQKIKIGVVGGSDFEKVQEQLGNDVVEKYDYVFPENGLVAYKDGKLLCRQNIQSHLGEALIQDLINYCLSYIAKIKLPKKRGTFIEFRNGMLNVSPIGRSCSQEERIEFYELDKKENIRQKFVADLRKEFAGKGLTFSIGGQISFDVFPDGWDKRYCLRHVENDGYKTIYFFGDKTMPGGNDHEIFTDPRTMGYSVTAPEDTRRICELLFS
Chain of G-protein coupled receptor 55 (Q9Y2T6 whole entry): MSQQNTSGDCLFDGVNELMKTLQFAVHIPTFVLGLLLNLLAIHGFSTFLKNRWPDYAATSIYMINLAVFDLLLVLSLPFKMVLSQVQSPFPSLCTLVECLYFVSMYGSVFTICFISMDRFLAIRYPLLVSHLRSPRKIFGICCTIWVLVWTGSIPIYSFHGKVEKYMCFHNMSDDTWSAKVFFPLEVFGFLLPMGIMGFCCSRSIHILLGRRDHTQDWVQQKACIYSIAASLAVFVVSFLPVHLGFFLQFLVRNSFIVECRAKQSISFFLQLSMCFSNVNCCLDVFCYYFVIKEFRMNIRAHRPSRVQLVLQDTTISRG
Chain of Mu-type opioid receptor (P35372 whole entry): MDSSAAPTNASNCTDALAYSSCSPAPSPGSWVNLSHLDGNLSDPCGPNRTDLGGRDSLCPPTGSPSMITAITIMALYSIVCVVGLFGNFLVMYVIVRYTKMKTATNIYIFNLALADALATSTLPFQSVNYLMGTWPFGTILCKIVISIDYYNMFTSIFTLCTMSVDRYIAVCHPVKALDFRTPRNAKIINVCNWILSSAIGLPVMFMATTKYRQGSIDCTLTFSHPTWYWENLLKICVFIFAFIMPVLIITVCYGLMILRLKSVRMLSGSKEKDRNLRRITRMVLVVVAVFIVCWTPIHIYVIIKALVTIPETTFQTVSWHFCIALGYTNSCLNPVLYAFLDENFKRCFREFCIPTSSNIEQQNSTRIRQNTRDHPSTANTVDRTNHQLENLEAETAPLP
Chain of DNA dC->dU-editing enzyme APOBEC-3A (P31941 whole entry): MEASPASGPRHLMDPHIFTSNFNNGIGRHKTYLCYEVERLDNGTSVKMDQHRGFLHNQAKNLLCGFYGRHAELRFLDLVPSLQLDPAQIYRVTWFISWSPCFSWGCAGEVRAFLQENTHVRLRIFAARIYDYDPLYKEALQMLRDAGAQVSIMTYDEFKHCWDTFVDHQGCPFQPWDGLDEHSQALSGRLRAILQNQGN
Chain of Phosphoethanolamine/phosphocholine phosphatase (Q8TCT1 whole entry): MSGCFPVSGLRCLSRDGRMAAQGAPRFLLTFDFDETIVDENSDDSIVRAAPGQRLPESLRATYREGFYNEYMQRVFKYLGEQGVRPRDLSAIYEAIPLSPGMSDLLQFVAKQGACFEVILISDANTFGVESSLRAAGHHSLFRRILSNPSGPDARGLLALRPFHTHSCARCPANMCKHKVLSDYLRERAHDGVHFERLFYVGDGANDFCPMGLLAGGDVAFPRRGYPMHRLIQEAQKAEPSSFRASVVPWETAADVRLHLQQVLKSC
Chain of 5-hydroxytryptamine receptor 5A (P47898 whole entry): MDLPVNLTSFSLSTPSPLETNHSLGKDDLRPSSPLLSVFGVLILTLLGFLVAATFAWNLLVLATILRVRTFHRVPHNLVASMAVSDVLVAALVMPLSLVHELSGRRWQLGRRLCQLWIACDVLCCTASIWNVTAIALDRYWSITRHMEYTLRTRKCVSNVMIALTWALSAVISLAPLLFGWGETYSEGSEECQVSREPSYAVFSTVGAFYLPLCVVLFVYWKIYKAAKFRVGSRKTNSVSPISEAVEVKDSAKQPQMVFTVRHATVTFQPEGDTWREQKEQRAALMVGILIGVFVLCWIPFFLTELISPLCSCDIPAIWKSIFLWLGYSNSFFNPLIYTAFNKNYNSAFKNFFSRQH
Chain of DNA dC->dU-editing enzyme APOBEC-3G (Q9HC16 whole entry): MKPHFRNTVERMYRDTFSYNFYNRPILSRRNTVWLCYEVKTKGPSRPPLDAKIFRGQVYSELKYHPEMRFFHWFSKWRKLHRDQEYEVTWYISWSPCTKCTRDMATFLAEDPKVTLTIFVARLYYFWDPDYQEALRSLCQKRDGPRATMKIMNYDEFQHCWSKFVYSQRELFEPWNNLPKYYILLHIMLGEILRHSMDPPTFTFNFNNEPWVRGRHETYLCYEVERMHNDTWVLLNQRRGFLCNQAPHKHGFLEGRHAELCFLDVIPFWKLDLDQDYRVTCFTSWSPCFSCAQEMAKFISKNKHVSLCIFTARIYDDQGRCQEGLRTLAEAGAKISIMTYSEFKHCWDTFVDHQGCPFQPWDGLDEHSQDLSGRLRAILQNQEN
Chain of Glucose-6-phosphate 1-dehydrogenase (P11413 whole entry): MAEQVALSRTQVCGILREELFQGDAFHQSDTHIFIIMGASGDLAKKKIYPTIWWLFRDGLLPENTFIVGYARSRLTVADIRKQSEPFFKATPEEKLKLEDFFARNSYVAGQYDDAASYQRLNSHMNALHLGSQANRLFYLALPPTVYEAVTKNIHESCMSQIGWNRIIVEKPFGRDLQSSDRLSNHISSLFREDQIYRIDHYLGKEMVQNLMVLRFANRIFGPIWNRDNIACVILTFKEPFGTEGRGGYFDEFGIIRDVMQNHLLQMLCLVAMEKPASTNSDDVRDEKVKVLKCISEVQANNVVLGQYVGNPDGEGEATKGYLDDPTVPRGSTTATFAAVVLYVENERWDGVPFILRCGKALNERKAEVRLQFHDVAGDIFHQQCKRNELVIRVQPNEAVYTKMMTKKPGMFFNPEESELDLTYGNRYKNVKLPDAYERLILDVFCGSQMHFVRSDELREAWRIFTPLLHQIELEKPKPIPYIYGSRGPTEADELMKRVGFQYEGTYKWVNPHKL

IC50 [1]: 0.192 µM (active) | IC50 [2]: 1.26 µM (active) | IC50 [3]: 12 µM (active)
Structure (SMILES): O=c1c2c([N+](=O)[O-])cc([N+](=O)[O-])cc2sn1-c1ccc(F)c(Cl)c1

IC50 [4]: > 100 µM (not active) | IC50 [5]: > 100 µM (inactive)
Structure (SMILES): CCCc1nc2oc3cc(OC)ccc3c(=O)c2c(=O)n1Cc1ccco1

EC50 [6]: > 32 µM (inactive)
Structure (SMILES): COCCCN=C(S)NNC(=O)c1cccnc1

Structure (SMILES): COC(=O)c1c(NC(=O)Cc2cccs2)sc2c1CCC(C)C2 (centres undefined)
AC50 [7]: 2.78 µM (active) | IC50 [8]: > 16 µM (inactive) | IC50 [9]: 6.23 µM (active)

Structure (SMILES): CC(NC(=O)c1sc2cc([N+](=O)[O-])ccc2c1Cl)C(C)(C)C (centres undefined)
EC50 [10]: 23.6 µM (inactive) | IC50 [11]: > 80 µM (inactive) | IC50 [12]: 18.4 µM (active) | EC50 [13]: 46.8 µM (inactive) | IC50 [14]: > 100 µM (inactive)

AC50 [15]: 1.6 µM (active) | IC50 [16]: > 66.6 µM (inactive) | AC50 [17]: 8.3 µM (active) | IC50 [18]: > 66.6 µM (inactive)
Structure (SMILES): N#Cc1c(N2CCN(C(=O)c3ccccc3)CC2)nc(-c2ccccc2)c2c1CCCC2

EC50 [19]: > 92.5 µM (inactive) | EC50 [20]: > 92.5 µM (inactive) | EC50 [21]: > 92.5 µM (inactive)
Structure (SMILES): COC(=O)CCCNC(=O)c1ccc(OC2CCN(CCc3ccccc3)CC2)cc1

IC50 [4]: > 100 µM (not active) | IC50 [5]: > 100 µM (inactive)
Structure (SMILES): Cc1ccc(C(C)NC(=O)/C(C#N)=C\c2c(C)[nH]c3ccccc23)cc1 (centres undefined)
CC50 [22]: 19.4 µM (active)
